Laboratory results: PubChem BioAssay (NCI)
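Method: 48-hour compound exposure of cells in 96-well plates, five concentrations, linear interpolation of endpoints. TGI: concentration producing complete growth inhibition.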

Experiments:
Assay in all cases: inhibition of tumour cell growth, NCI panel, 48 h
UACC-257 melanoma = tested on: UACC-257 melanoma
HOP-92 NSCLC = tested on: HOP-92 NSCLC
SW-620 colon = tested on: SW-620 colon
A549 NSCLC = tested on: A549 NSCLC
TK-10 renal = tested on: TK-10 renal
HS 578T breast = tested on: HS 578T breast
SK-MEL-2 melanoma = tested on: SK-MEL-2 melanoma
SK-OV-3 ovarian = tested on: SK-OV-3 ovarian
NCI-H522 lung = tested on: NCI-H522 lung
MDA-MB-435 = tested on: MDA-MB-435
OVCAR-8 ovarian = tested on: OVCAR-8 ovarian
NCI-H226 lung = tested on: NCI-H226 lung

Structure (SMILES)	TGI (UACC-257 melanoma) [µM]	TGI (HOP-92 NSCLC) [µM]	TGI (SW-620 colon) [µM]	TGI (A549 NSCLC) [µM]	TGI (TK-10 renal) [µM]	TGI (HS 578T breast) [µM]	TGI (SK-MEL-2 melanoma) [µM]	TGI (SK-OV-3 ovarian) [µM]	TGI (NCI-H522 lung) [µM]	TGI (MDA-MB-435) [µM]	TGI (OVCAR-8 ovarian) [µM]	TGI (NCI-H226 lung) [µM]
COc1ccc(C2CCc3nc4nc(N)nc(N)c4cc3C2)cc1 (stereo not given)	> 100	9.31	> 100	> 100	24.9	> 100	42.3	25.3	> 100	78.2	22.5	> 100
CCCS(=O)(=O)O	> 100	> 100	> 100	> 100	> 100	> 100	> 100	> 100	> 100	> 100	> 100	> 100
O=C(N/N=C(/COc1cccc(Cl)c1)N=Cc1ccncc1)c1ccncc1	> 100	> 100	> 100	> 100	> 100	> 100	> 100	> 100	> 100	> 100	> 100	> 100
CSC1=N/C(=C\c2cccs2)C(=O)N1CN1CCOCC1	–	94.3	> 100	> 100	> 100	> 100	> 100	> 100	> 100	> 100	> 100	> 100
C1CNCCN2CCCNCCN(C1)CC2	> 100	> 100	> 100	> 100	> 100	> 100	> 100	> 100	> 100	> 100	> 100	> 100
COc1ccc(-c2cc(-c3ccccc3)n(C3OC(COC(C)=O)C(OC(C)=O)C(OC(C)=O)C3OC(C)=O)c(=S)c2C#N)cc1 (stereo not given)	–	15.5	> 100	39.3	40.7	23.5	–	32.9	18.5	19.4	19.7	23.1
O=[N+]([O-])c1cc2n[nH]nc2c2nonc12	63	> 100	> 100	> 100	> 100	58.8	> 100	> 100	32.6	30.1	58.1	40.9
O=C(CSc1nc2ccc(I)cc2c(=O)n1Cc1ccccc1)N/N=C/c1ccccc1	> 100	34	> 100	> 100	36.1	9.09	35.6	31.6	40	> 100	60.5	95.9
COc1cc2c(cc1C)NC(=O)/C2=C/c1c(Cl)[nH]c2cc(C)c(OC)cc12	23.7	23.7	19.7	28.7	18	46	22.1	5.56	19.8	8.49	24.1	50.6
O=C1CCc2c3c(c4c([nH]c5ccccc54)c2CC1)C(=O)NC3=O	19.5	82	> 100	> 100	39.6	> 100	17.1	–	9.3	12.3	38.2	23.7
CCN(CC)CCn1ncc2ccc3c(c(=O)c4cccnc4n3CCN(CC)CC)c21	3.95	4.37	> 6.66	> 10	> 10	> 6	3.51	> 9.46	2.35	1.94	3.63	5.44
O=c1oc2ncccc2n1Cc1ccc([N+](=O)[O-])cc1	> 100	> 100	> 100	> 100	> 100	> 100	> 100	> 100	> 100	> 100	> 100	> 100
Cc1nn2c(N)cc(=O)nc2nc1/C=C/c1ccc(N(C)C)cc1	> 100	> 43.6	> 100	> 100	> 100	> 100	> 100	> 100	7.62	> 100	> 100	> 100
CCOC(=O)c1ccc(N=C2SC(=S)N(c3ccc(F)cc3)C2=Nc2ccc(C(=O)OCC)cc2)cc1	37.4	26	30	> 84.9	36.6	91.7	35	> 100	19.1	40.7	22.3	43.1
C=CCCCCOC1C=CC(OC(C)=O)C(COC(C)=O)O1 (stereo not given)	> 100	> 100	> 100	> 100	> 100	> 100	> 100	> 100	> 100	> 100	> 100	> 100
CCN(CC)CCN1c2ccccc2Sc2ccc3ccccc3c21	21.5	12.8	24.4	27.8	23.9	32.6	27.9	29.4	27.9	21.2	26.8	19.1
CN(Cc1cnc2nc(N)nc(N)c2n1)c1ccc(C(=O)NC(CCS(=O)(=O)O)C(=O)O)cc1 (stereo not given)	> 100	> 100	> 100	> 100	> 100	> 100	> 100	> 100	> 100	> 100	> 100	> 100
OC(c1cc(C(O)(C(F)(F)F)C(F)(F)F)ncn1)(C(F)(F)F)C(F)(F)F	> 10	> 10	> 10	> 10	> 10	> 10	> 10	> 10	> 10	> 10	> 10	> 10
COCCc1c(C)c(C#N)c2n(C)c3ccccc3n2c1=O	> 10	> 10	> 10	> 10	> 10	> 10	> 10	> 10	> 10	> 10	> 10	> 10

Structure (SMILES)	TGI (UACC-257 melanoma) [µM]	TGI (HOP-92 NSCLC) [µM]	TGI (SW-620 colon) [µM]	TGI (A549 NSCLC) [µM]	TGI (TK-10 renal) [µM]	TGI (HS 578T breast) [µM]	TGI (SK-MEL-2 melanoma) [µM]	TGI (SK-OV-3 ovarian) [µM]	TGI (NCI-H522 lung) [µM]	TGI (MDA-MB-435) [µM]	TGI (OVCAR-8 ovarian) [µM]	TGI (NCI-H226 lung) [µM]
NS(=O)(=O)c1ccc(NNC(=O)c2cccc3c(=O)c4ccccc4[nH]c23)cc1	> 100	> 100	> 100	> 100	> 100	> 100	> 100	> 100	> 100	> 100	> 100	> 100
ON=C1CCCCC(=NO)CCCC1	> 100	> 100	> 100	> 100	> 100	> 100	> 100	> 100	> 100	> 100	> 100	> 100
COC(=O)N1CC[C@@H]2CCC=C(c3cccc4c3OCO4)[C@@H]21	> 100	> 100	> 100	> 100	> 100	> 100	> 100	> 100	> 100	> 100	> 100	> 100
CCCCc1ccc(Nc2nc3c(ncn3C3OC(COC(C)=O)C(OC(C)=O)C3OC(C)=O)c(=O)[nH]2)cc1 (stereo not given)	34.3	30.4	48.2	> 100	> 100	56	31	71.1	32.8	34.5	34.7	60.6
CC(C)(C)OC(=O)N1C(C2=COc3ccccc3O2)=COc2ccccc21	78	73.2	67.8	> 100	> 100	> 100	53.2	> 100	40.8	> 100	> 100	88.8
O=C1C(NS(=O)(=O)c2ccccc2)=C(n2cnc3ccccc32)C(=O)c2ccccc21	> 100	> 100	> 100	> 100	> 100	> 100	> 100	> 100	53.7	> 100	> 100	> 100
Oc1c(C(O)(c2ccccc2)c2ccc3ccccc3c2O)ccc2ccccc12	23.4	24.1	41.8	30.4	26.8	27.8	26.4	38.3	16.5	40.6	29.7	36.5
Clc1cc2nc(C3CCCO3)[nH]c2cc1Cl (stereo not given)	> 100	> 100	> 100	> 100	> 100	> 100	> 100	> 100	66	> 100	> 100	> 100
COC(=O)C12CCC(C(=O)OC)(Cc3c(c4ccccc4n3S(=O)(=O)c3ccccc3)C1)C2=O (stereo not given)	> 100	> 100	> 100	> 100	> 100	> 84.7	> 100	> 100	97.1	> 100	> 100	> 100
NS(=O)(=O)c1nnc(NC(=O)CCC(=O)O)s1	> 100	> 100	> 100	> 100	> 100	> 100	> 100	> 100	> 100	> 100	> 100	> 100
CCOC(=O)C(SCCO)C(C(=O)OCC)n1ccc(N)nc1=O (stereo not given)	> 100	> 100	> 100	> 100	> 100	> 100	> 100	> 100	> 100	> 100	> 100	> 100
c1ccc(Cc2cccc3cc(-c4ccc(-c5ccccc5)cc4)[nH]c23)cc1	> 100	> 100	> 100	> 100	> 100	84	> 100	> 100	> 100	> 100	> 100	> 100
CCCCC1Cc2cc(O)ccc2-c2n1c1cc(O)ccc1[n+]2C (stereo not given) (tested in a mixture with another compound)	80	73.8	> 100	> 100	> 100	> 51.4	> 100	> 100	> 47.4	59.6	> 100	> 100
COc1cc(N=C(N)N=C(N)N)c2ncccc2c1	> 100	> 100	> 100	> 100	> 100	> 100	> 100	> 100	> 100	> 100	> 100	62.7
CC1=C(C)C(=O)OC(C(C)(O)C2(O)CCC3(O)C4CC(Cl)C5(O)C(O)C=CC(=O)C5(C)C4CCC32C)C1 (stereo not given)	> 100	> 100	59.1	> 100	> 100	> 100	> 100	> 100	> 100	> 100	> 100	> 100
CC(C)OP(=O)(OC(C)C)C(C(F)(F)F)C(F)(F)F	> 100	> 100	> 100	> 100	> 100	> 100	> 100	> 100	> 100	> 100	> 100	> 100
CCCCCCCCCc1cc(O)c(O)cc1CCCCCCCCC	> 10	> 10	> 10	> 10	> 10	> 10	> 10	> 10	> 10	> 10	> 10	> 10
O=C(Nc1ccc(Cl)cc1)c1cc(S(=O)(=O)Nc2n[nH]c(=O)[nH]2)c(SSc2cc(Cl)c(C(=O)Nc3ccc(Cl)cc3)cc2S(=O)(=O)Nc2n[nH]c(=O)[nH]2)cc1Cl	> 100	> 100	> 100	> 100	> 100	> 100	> 100	> 100	> 100	> 100	> 100	> 100
